Laboratory results as given in patent publication US4208414A, “Vinblastine in rheumatoid arthritis” (Eli Lilly and Company, priority 1979, dated 1980).
Where a name gives a salt, the structure may show the parent alone.

Key:
[1] = adjuvant-induced arthritis assay in rats; format: in vivo, female Wistar-Lewis rats; settings: for Percent Inhibition Swelling, Injected Paw / Percent Inhibition Swelling, Uninjected Paw: day 16; for Percent Inhibition of Swelling, Injected Paw / Percent Inhibition of Swelling, Uninjected Paw: Table 2; for inhibiting induced arthritis, drug alone: at the dose levels used in combination; for Inhibition of Swelling, Mean Difference, Injected Paw / Inhibition of Swelling, Mean Difference, Uninjected Paw: Table 3
[2] = weight loss / deaths as a measure of toxicity in the adjuvant arthritis experiments
Method: Similar experiments were carried out with vinblastine-fenoprofen combinations and a vinblastine-indomethacin combination, again using adjuvant arthritis as a model. In this first determination, vinblastine was, as before, given on the 10th day, but fenoprofen, as the calcium salt, was given both from day 0 through day 15 and from day 10 through day 15. Controls utilizing each drug alone were employed as well as a saline control. […] In the vinblastine-indomethacin experiment, vinblastine was given on day 11 and indomethacin daily from days 11 to day 16.

twine granuloma assay = format: in vivo; settings: female rats
Description: Vinblastine is also active in other assays designed to detect anti-arthritic activity as, for example, the twine granuloma assay in female rats.

[3] = dogs pretreated with vinblastine; cited from earlier work
[4] = pigeons or chickens, intertarsal joint; cited from earlier work
[5] = mice; cited from earlier work
[6] = intravenous; pleural cavity; cited from earlier work
[7] = antiarthritic activity relative to vinblastine, parenteral; format: in vivo; settings: parenteral administration
[8] = Table 1 Section B, fenoprofen 5 mg/kg, days 10-15
[9] = Table 1 Section A, 3 mg/kg, given on 10th day
[10] = Table 1 Section A, 6 mg/kg, given on 10th day
[11] = Table 1 Section A, 9 mg/kg, given on 10th day
[12] = Table 1 Section A, 9 mg/kg, given on 10th day, * decrease from previous value
[13] = Table 1 Section A, 12 mg/kg, given on 10th day, * decrease from previous value
[14] = Table 1 Section B, vinblastine sulfate 6 mg/kg, 10th day
[15] = vinblastine sulfate 3 mg/kg, day 10, p = 1
[16] = Table 2, vinblastine sulfate 3 mg/kg day 10

## CC(C(=O)O)c1cccc(Oc2ccccc2)c1 (racemic) [Fenoprofen (Ca salt), dl-α-methyl-3-phenoxybenzeneacetic acid]
[1]; [8]
  Average Increase in Swelling, Injected Paw, Day 0-10: 0.502
  Average Increase in Swelling, Injected Paw, Day 10-16: 0.692
  Average Increase in Swelling, Uninjected Paw, Day 0-10: 0.188
  Average Increase in Swelling, Uninjected Paw, Day 10-16: 0.274
[1]; Table 1 Section B, fenoprofen 5 mg/kg, days 10-15, p = 0.074
  Percent Inhibition Swelling, Injected Paw: 41.11%
[1]; Table 1 Section B, fenoprofen 5 mg/kg, days 10-15, p = 0.282
  Percent Inhibition Swelling, Uninjected Paw: 51.93%
[1]; fenoprofen Ca salt 2.5 mg/kg days 0-15, p = 0.196
  Percent Inhibition of Swelling, Injected Paw: 34.9%
[1]; fenoprofen Ca salt 2.5 mg/kg days 0-15, p = 0.645
  Percent Inhibition of Swelling, Uninjected Paw: 17.4%
[1]; fenoprofen Ca salt 5 mg/kg days 10-15, p = 0.385
  Percent Inhibition of Swelling, Uninjected Paw: 27.2%
[1]; fenoprofen Ca salt 5 mg/kg days 10-15, p = 0.58
  Percent Inhibition of Swelling, Injected Paw: 40.3%
[1]
  inhibiting induced arthritis, drug alone: neither drug alone is effective
[2]; Table 2 footnote, 2.5 mg/kg days 0-15, at day 16
  death: one death

## COc1ccc2c(c1)c(CC(=O)O)c(C)n2C(=O)c1ccc(Cl)cc1 [Indomethacin]
[1]; indomethacin 0.25 mg/kg, p = 0.11
  Inhibition of Swelling, Mean Difference, Injected Paw: 0.59
[1]; indomethacin 0.25 mg/kg, p = 1
  Inhibition of Swelling, Mean Difference, Uninjected Paw: 0.56
[1]
  inhibiting induced arthritis, drug alone: neither drug alone is effective

## CC[C@]1(O)C[C@@H]2CN(CCc3c([nH]c4ccccc34)[C@@](C(=O)OC)(c3cc4c(cc3OC)N(C)[C@H]3[C@@](O)(C(=O)OC)[C@H](OC(C)=O)[C@]5(CC)C=CCN6CC[C@]43[C@@H]65)C2)C1 [Vinblastine sulfate]
[1]; [9]
  Average Increase in Swelling, Injected Paw, Day 0-10: 0.554
  Average Increase in Swelling, Injected Paw, Day 10-16: 0.722
  Average Increase in Swelling, Uninjected Paw, Day 0-10: 0.024
  Average Increase in Swelling, Uninjected Paw, Day 10-16: 0.574
[1]; Table 1 Section A, 3 mg/kg, given on 10th day, p = 0.097
  Percent Inhibition Swelling, Injected Paw: 38.55%
[1]; Table 1 Section A, 3 mg/kg, given on 10th day, p = 0.987
  Percent Inhibition Swelling, Uninjected Paw: 0%
[1]; [10]
  Average Increase in Swelling, Injected Paw, Day 0-10: 0.498
  Average Increase in Swelling, Injected Paw, Day 10-16: 0.188
  Average Increase in Swelling, Uninjected Paw, Day 0-10: 0.038
[1]; Table 1 Section A, 6 mg/kg, given on 10th day, p = 0.001
  Percent Inhibition Swelling, Injected Paw: 84.00%
[1]; Table 1 Section A, 6 mg/kg, given on 10th day, p = 0.077
  Percent Inhibition Swelling, Uninjected Paw: 74.39%
[1]; [11]
  Average Increase in Swelling, Injected Paw, Day 0-10: 0.492
  Average Increase in Swelling, Uninjected Paw, Day 0-10: 0.230
[1]; [12]
  Average Increase in Swelling, Injected Paw, Day 10-16: -0.096
  Average Increase in Swelling, Uninjected Paw, Day 10-16: -0.232
[1]; Table 1 Section A, 9 mg/kg, given on 10th day, p = 0.000
  Percent Inhibition Swelling, Injected Paw: 100.0%
[1]; Table 1 Section A, 9 mg/kg, given on 10th day, p = 0.004
  Percent Inhibition Swelling, Uninjected Paw: 100.00%
[1]; Table 1 Section A, 12 mg/kg, given on 10th day
  Average Increase in Swelling, Injected Paw, Day 0-10: 0.698
[1]; [13]
  Average Increase in Swelling, Injected Paw, Day 10-16: -0.108
  Average Increase in Swelling, Uninjected Paw, Day 0-10: -0.102
  Average Increase in Swelling, Uninjected Paw, Day 10-16: -0.048
[1]; Table 1 Section A, 12 mg/kg, given on 10th day, p = 0.000
  Percent Inhibition Swelling, Injected Paw: 100.00%
[1]; Table 1 Section A, 12 mg/kg, given on 10th day, p = 0.027
  Percent Inhibition Swelling, Uninjected Paw: 100.00%
[1]; [14]
  Average Increase in Swelling, Injected Paw, Day 0-10: 0.498
  Average Increase in Swelling, Injected Paw, Day 10-16: 0.188
  Average Increase in Swelling, Uninjected Paw, Day 0-10: 0.030
[1]; Table 1 Section B, vinblastine sulfate 6 mg/kg, 10th day, p = 0.001
  Percent Inhibition Swelling, Injected Paw: 84.00%
[1]; Table 1 Section B, vinblastine sulfate 6 mg/kg, 10th day, p = 0.077
  Percent Inhibition Swelling, Uninjected Paw: 74.39%
[1]; vinblastine sulfate 3 mg/kg day 10, p = 0.724
  Percent Inhibition of Swelling, Injected Paw: 8.22%
[1]; vinblastine sulfate 3 mg/kg day 10, p = 0.764
  Percent Inhibition of Swelling, Uninjected Paw: 12.0%
[1]; [15]
  Inhibition of Swelling, Mean Difference, Injected Paw: 1.00
  Inhibition of Swelling, Mean Difference, Uninjected Paw: 0.41
[1]
  inhibiting induced arthritis, drug alone: neither drug alone is effective
[2]; [16]
  Wt. Loss, Day 0-16: -22.3 grams
  Wt. Loss, Day 10-16: -22.6 grams
[2]; Table 3, vinblastine sulfate 3 mg/kg, day 10
  Wt. Loss, Day 10-17: 28.9 grams

## CC[C@]1(O)C[C@@H]2CN(CCc3c([nH]c4ccccc34)[C@@](C(=O)OC)(c3cc4c(cc3OC)N(C)[C@H]3[C@@](O)(C(=O)OC)[C@H](OC(C)=O)[C@]5(CC)C=CCN6CC[C@]43[C@@H]65)C2)C1 [Vinblastine]
[1]; summary statement
  activity in the adjuvant arthritis assay: active in the adjuvant arthritis assay
Twine granuloma assay
  activity in twine granuloma assay: active
[3]
  inflammatory response: almost completely abolished
  leukocyte depletion: profound leukocyte depletion
  significant phagocyte accumulation: prevented
[4]
  inhibition of the arthritic response: no inhibition of the arthritic response
[5]
  depression of paw swelling: significant depression of paw swelling
[6]
  effect on inflammation: may have a suppressive effect

## CC[C@]1(O)C[C@H]2CN(CCc3c([nH]c4ccccc34)[C@@](C(=O)OC)(c3cc4c(cc3OC)N(C=O)[C@H]3[C@@](O)(C(=O)OC)[C@H](OC(C)=O)[C@]5(CC)C=CCN6CC[C@]43[C@@H]65)C2)C1 [vincristine]
[7]
  antiarthritic activity relative to VLB: about 10 times more active
[4]
  inhibition of the arthritic response: no inhibition of the arthritic response
[5]
  depression of paw swelling: significant depression of paw swelling
